Source: US4687773A, “(+)-N-N-propylnorapomorphine and selective limbic activity” (priority 1985, dated 1987)
Counter-ions that a name gives are not always drawn. Like-named read-outs stand apart in the source and are kept apart here.

How the values were obtained:
[1] = system: dopamine (DA) receptors in the basal ganglia (corpus striatum); assay: Stereotyped licking and gnawing behavior rating in the rat; assay type: in vivo; settings: for SB Score, Percent of Maximum / SB Score (stereotyped behaviors): Table 12, 3 mg/kg ip; for SB Score (stereotyped behaviors): max. possible score 18.0; for stereotyped behavior (in words): rat, in vivo
From the text: Stereotypy: The mean stereotyped licking and gnawing behavioral rating scheme developed by Tarsy and Baldessarini^8 was used. […]
Stereotypy scores were rated for one hour as described in […]

[2] = system: dopamine (DA) receptors in the limbic system; assay: Locomotor activity (spontaneous or aroused by (-)APO / (-)NPA), electronic activity monitor; assay type: in vivo, rat; settings: for increase of the locomotor stimulatory effect of APO: with (-)APO; for EAM Score / EAM Score, Percent of Control / interaction with (-)APO locomotor arousal (in words): Table 11; for EAM Score: 60 min; for interaction with (-)APO locomotor arousal (in words): 3 mg/kg ip with (-)APO; for effect on locomotor-arousal activity (in words): with or without (-) isomer; for Locomotion: Table 4
Experimental: (§1) Activity: Overall motor activity was measured by use of the self-recording Stoelting electronic activity monitor method described previously by Stewart, Campbell, Sperk, and Baldessarini^9. Total activity is obtained by setting monitor sensitivity so as to detect both locomotion and small movements (such as grooming, sniffing, and chewing) as would be prominent in stereotyped responses that tend to diminish locomotion and increase sniffing, licking, and chewing movements. Locomotor activity is detected selectively by setting monitor sensitivity to detect large, locomotor movements, and to minimize smaller movements already described.
Rats (mean N=6 per condition) were tested for locomotor activity for 60 min following a single dose of (-)APO (0.3 mg/kg, SC), or its vehicle ("placebo" condition). The S(+) isomers were administered in a range of doses from 0 or 0.1 to 30 mg/kg, SC immediately following injection of (-)APO or its vehicle. Data are presented in FIG. 2 as mean EAM activity counts per hour SEM. In that figure, the dashed line labeled "control" represents the mean activity of rats given vehicle only and no aporphine (SD values are indicated by parallel light lines above and below the control mean).
Test agents (11substituted-N--propylnoraporphine isomers were given at a
dose of 3 mg/kg, ip (in 2 ml/kg) just prior to (-)apomorphine (APO, at 0.
mg/kg, ip, in 1 ml/kg) to rats (N = 6) tested in an electronic activity

[3] = system: DA in the limbic system (nucleus accumbens septi); assay: Arousal (locomotor activity) induced by DA injected into nucleus accumbens septi; assay type: in vivo, rat; settings: for activity counts (arousal induced by 16 μg DA in accumbens): 30 min, DA control 238 ± 38; for ED50: Rattus norvegicus; for ED50 / ID50: DA 16 μg in accumbens; for ID50: hydrochloride
Experimental: An experiment shown in Table 9 involves testing the effects of S(+) isomers of apomorphine (APO) and N-propylnorapomorphine (NPA) given systemically (intraperitoneally, ip), as well as S(+) methylenedioxy-N-propylnorapomorphine (MDO-NPA) given ip or orally (po, by orogastric intubation). […]. […] Activity was monitored for 30 min after injection of DA into the brain, which was done at 10 min after systemic dosing with an S(+)aporphine test compound.
Data are mean activity counts ± SEM (N = 6) for rats given DA into the
medial accumbens after pretreatment with an inhibitor of monoamine oxidas
(MA0), and monitored on EAM for 30 min (aporphine given 10 min before DA
systemicallyintraperitoneally [ip] or orally [po].

[4] = system: DA in the corpus striatum (basal ganglia); assay: Head posture (contralateral head deviation) after intrastriatal DA; assay type: in vivo, rat
[5] = system: dopamine (DA) receptors in the limbic system; assay: Effect of metabolic inhibitor SKF-525A on locomotor effect of (+)MDO-NPA; assay type: in vivo, rat
Experimental: Rats (N = 6) per condition) were tested by monitoring locomotor activity
on an electronic monitor under higharousal conditions (7-8 PM during earl
"lights out" phase, and singly in previously occupied test cages).
Pretreatment was saline (control) or the microsomal inhibitor SKF525A (40
mg/kg, ip). At 30 min later, saline or (+)MDONPA (3 mg/kg, ip) was given,
and the rats were monitored for the next 60 min. Data are activity counts
per hour, as means ± SEM ([*] = significant by ttest at p < 0.05). Th

[6] = system: dopamine (DA) receptors in the limbic system and basal ganglia; assay: Total motor activity, electronic activity monitor (EAM); assay type: in vivo, rat; settings: Table 4
Experimental: as §1
All data presented in the Tables below are expressed as the mean results from 4-6 rats per condition, ±S.E.M. Stereotypy is expressed in rating units (maximum=3.0) and activity is expressed in arbitrary units of percent change, derived from EAM counts per unit time, relative to activity in control (saline) animals set at zero.
All the posttreatment doses of (+)APO were 3.0 mg/kg, s.c. The data
All posttreatment doses of (+)NPA were 3 mg/kg, s.c. The data are similar

[7] = system: dopamine (DA) receptors in the limbic system; assay: Locomotor activity (spontaneous or aroused by (-)APO / (-)NPA), electronic activity monitor; assay type: in vivo, rat; settings: Table 4; (-)APO 3.0 mg/kg + saline
[8] = test agent 3 mg/kg ip just prior to (-)APO ip
[9] = test agent 3 mg/kg ip just prior to (-)APO ip, * p < 0.005
[10] = intrastriatal DA 16 μg, 3 mg/kg ip
[11] = intrastriatal DA 16 μg, 3 mg/kg po
[12] = SKF-525A 40 mg/kg ip pretreatment, then S(+)MDO-NPA 3 mg/kg ip
[13] = SKF-525A 40 mg/kg ip, then saline
[14] = intrastriatal dopamine 16 μg + systemic saline

Q: Which results are given for CCCN1CCc2cccc3c2[C@H]1Cc1cccc(O)c1-3 [(-)11-OH--N--propylnoraporphine, R(-)11-hydroxy-N-propylnoraporphine]?
A: SB Score, Percent of Maximum [1]: 76.7% of Maximum; SB Score (stereotyped behaviors) ([1]; one hour): 13.8 ± 0.75; stereotyped behavior (in words) ([1]; listed as R(-)11-hydroxy-N-- propylnoraporphine): very active; stereotyped behavior (in words) ([1]; listed as R(-)11-hydroxy-N-propylnoraporphine): striking activity as a DA agonist; increase of the locomotor stimulatory effect of APO ([2]; 3 mg/kg): 51%; EAM Score [2, 8]: 764 ± 58; EAM Score, Percent of Control [2, 9]: 151% of Control

Q: Which results are given for CCCN1CCc2cccc3c2[C@@H]1Cc1cccc(O)c1-3 [(+)11-OH--N--propylnoraporphine, S(+) 11-hydroxy-N-propylnoraporphine hydrochloride and hydrobromide]?
A: SB Score, Percent of Maximum [1]: 6.9% of Maximum; SB Score (stereotyped behaviors) ([1]; one hour): 1.3 ± 0.75; stereotyped behavior (in words) [1]: virtually inactive; interaction with (-)APO locomotor arousal (in words) ([2]; listed as S(+)11-hydroxy-N-propylnoraporphine, hydrobromide, 3 mg/kg): strong inhibitory interaction with APO; interaction with (-)APO locomotor arousal (in words) ([2]; listed as S(+)11hydroxy-N--propylnoraporphine, hydrobromide, 3 mg/kg): significant inhibition of arousal; EAM Score [2, 8]: 218 ± 33; EAM Score, Percent of Control [2, 9]: 43% of Control; effect on locomotor-arousal activity (in words) [2]: exerted similarly selective actions as (+)NPA

Q: For CCCN1CCc2cccc3c2[C@@H]1Cc1ccc2c(c1-3)OCO2 [(+)MDO-NPA, S(+) 10,11-methylenedioxy-N-propylnoraporphine hydrochloride], which “activity counts (arousal induced by 16 μg DA in accumbens)” value (shortened to “activity counts”) ([3]; 0.3 mg/kg ip) is on record?
A: Its value is 122 ± 16 activity counts.

Q: What about the “activity counts” value ([3]; 0.3 mg/kg po) of the same compound?
A: Its value is 149 ± 23 activity counts.

Q: What about the “activity counts” value ([3]; 1.0 mg/kg ip) of the same compound?
A: Its value is 54 ± 9 activity counts.

Q: What about the “activity counts” value ([3]; 1.0 mg/kg po) of the same compound?
A: The value was 74 ± 17 activity counts.

Q: What about the “activity counts” value ([3]; 3.0 mg/kg ip) of the same compound?
A: The value was 36 ± 7 activity counts.

Q: What about the “activity counts” value ([3]; 3.0 mg/kg po) of the same compound?
A: The value was 49 ± 16 activity counts.

Q: What about the ED50 ([3]; ip, read-out: ID50, ip) of the same compound?
A: Its ED50 is 0.27 mg/kg.

Q: What about the ED50 ([3]; po, read-out: ID50, po) of the same compound?
A: The ED50 was 0.51 mg/kg.

Q: What about the ID50 ([3]; ip) of the same compound?
A: The ID50 was 0.3 mg/kg.

Q: And the ID50 ([3]; po)?
A: Its ID50 is 0.5 mg/kg.

Q: And the “effect on arousal induced by DA in accumbens (in words)” value ([3]; rat, in vivo)?
A: Its value is “also active after systemic oral administration, selectively, against DA placed in the accumbens but not the striatum”.

Q: And the “times more potent than (+)APO as inhibitor of DA in the limbic system” value ([3]; vs (+)APO)?
A: The value was 13 times.

Q: What about the “Contralateral Head Deviation, Percent of Total” value [4, 10] of the same compound?
A: The value was 71.7% of Total.

Q: And the “Contralateral Head Deviation, Time” value [4, 10]?
A: Its value is 512 ± 96 s.

Q: And the “Contralateral Head Deviation, Percent of Total” value [4, 11]?
A: The value was 70.1% of Total.

Q: And the “Contralateral Head Deviation, Time” value [4, 11]?
A: The value was 505 ± 89 s.

Q: And the “Locomotor Activity” value [5, 12]?
A: The value was 3445 ± 597 counts/hr.

Q: And the “Locomotor Activity (%)” value [5, 12]?
A: The value was 82%.

Q: What about the “Locomotor Activity” value ([5]; saline pretreatment, then S(+)MDO-NPA 3 mg/kg ip) of the same compound?
A: Its value is 1828 ± 265 counts/hr.

Q: And the “Locomotor Activity (%)” value ([5]; saline pretreatment, then S(+)MDO-NPA 3 mg/kg ip, * p < 0.05)?
A: The value was 43%.

Q: CCCN1CCc2cccc3c2[C@H]1Cc1cccc(OC)c1-3 [(-)11-methoxy-N--propylnoraporphine] was tested. Which “SB Score, Percent of Maximum” value [1] did it give?
A: The value was 36.1% of Maximum.

Q: What about the “SB Score (stereotyped behaviors)” value ([1]; one hour) of the same compound?
A: Its value is 6.5 ± 0.50.

Q: What about the “stereotyped behavior (in words)” value ([1]; listed as 11-methoxy congener) of the same compound?
A: The value was “moderately active”.

Q: What about the “stereotyped behavior (in words)” value ([1]; listed as R(-)11methoxy analog) of the same compound?
A: Its value is “had some activity”.

Q: What about the “increase of the locomotor stimulatory effect of APO” value ([2]; 3 mg/kg) of the same compound?
A: The value was 14%.

Q: And the “EAM Score” value [2, 8]?
A: Its value is 574 ± 45.

Q: What about the “EAM Score, Percent of Control” value [2, 9] of the same compound?
A: Its value is 114% of Control.

Q: CN1CCc2cccc3c2[C@@H]1Cc1cccc(O)c1-3 [S(+) 11-hydroxyaporphine, S(+) 11-hydroxyaporphine (N-R=N-methyl)] was tested. Which “effect on locomotor-arousal activity (in words)” value [2] did it give?
A: The value was “less active”.

Q: What does the source list for CN1CCc2cccc3c2[C@H]1Cc1ccc(O)c(O)c1-3 [(-)APO, R(-)apomorphine]?
A: mean control stereotypy score, % of maximum ([1]; (-)APO 0.3 mg/kg IP + vehicle): 51.3 % of maximum; mean control stereotypy score ([1]; (-)APO 0.3 mg/kg IP + vehicle, one hour, maximum possible score 18.0): 9.23 ± 0.43; approximate ED50 (stereotyped behavior) ([1]; (-)APO, IP, rats): ~0.3 mg/kg; Stereotypy Score ([1]; Table 1, (-) isomer 3 mg/kg, s.c., ± saline, maximum 3.0): 3.0 ± 0.0 rating units; Stereotypy Score ([1]; Table 4, (-)APO 0.3 mg/kg + saline): 1.62 ± 0.23 rating units; Stereotypy Score ([1]; Table 4, (-)APO 1.0 mg/kg + saline): 2.09 ± 0.36 rating units; Stereotypy Score ([1]; Table 4, (-)APO 3.0 mg/kg + saline): 2.92 ± 0.20 rating units; Total Activity ([6]; (-)APO 0.3 mg/kg + saline): 42.2 ± 8.5 percent change; Total Activity ([6]; (-)APO 1.0 mg/kg + saline): 51.9 ± 6.8 percent change; Total Activity ([6]; (-)APO 3.0 mg/kg + saline): 75.3 ± 8.6 percent change; Locomotion ([2]; (-)APO 0.3 mg/kg + saline): 63.5 ± 12.3 percent change; Locomotion ([2]; (-)APO 1.0 mg/kg + saline): 75.8 ± 19.4 percent change; EAM Score, Percent of Control ([2]; (-)APO alone (control)): 100% of Control; EAM Score ([2]; (-)APO alone (control), ip): 505 ± 55; Locomotion [7]: 48.6 ± 9.3 percent change

Q: For CCCC(C(=O)OCCN(CC)CC)(c1ccccc1)c1ccccc1 [SKF-525A], which “Locomotor Activity” value [5, 13] is on record?
A: The value was 4777 ± 610 counts/hr.

Q: And the “Locomotor Activity (%)” value [5, 13]?
A: The value was 113%.

Q: Which results are given for CCCN1CCc2cccc3c2[C@@H]1Cc1cccc(OC)c1-3 [(+)11-methoxy-N--propylnoraporphine, S(+) 11-Methoxy-N-propylnoraporphine hydrobromide]?
A: SB Score, Percent of Maximum [1]: 0.0% of Maximum; SB Score (stereotyped behaviors) ([1]; one hour): 0 ± 0; stereotyped behavior (in words) [1]: inactive; interaction with (-)APO locomotor arousal (in words) [2]: devoid of activity; EAM Score [2, 8]: 528 ± 25; EAM Score, Percent of Control [2, 9]: 105% of Control

Q: How did the “Contralateral Head Deviation, Percent of Total” value [4, 14] turn out when NCCc1ccc(O)c(O)c1 [DA, dopamine] was run?
A: Its value is 59.0% of Total.

Q: And the “Contralateral Head Deviation, Time” value [4, 14]?
A: Its value is 425 ± 53 s.
